From US11672842B2, “Gonadotropin-releasing hormones for use as adjuvant immunotherapeutics” (ISR IMMUNE SYSTEM REGULATION HOLDING AB (PUBL), priority 2017, dated 2023)
[ ]: non-standard residue; d: D form. pGlu = O=C1CC[C@@H](C(=O)O)N1

Columns and labels:
[1] = test system: CD4+ and CD8+ T cells (PBMCs from a healthy donor); experiment: MHC class I expression after stimulation of T cells with GnRH II (FIG. 1); type: cell-based, human; settings: GnRH II and IL-2 for 72 hours, flow cytometry
Description: FIG. 1: Expression of MHC class I after stimulation of T cells with increasing concentrations of GnRH II. PBMCs from a healthy donor was stimulated with GnRH II and IL-2 for 72 hours. Data points represent mean fluorescent intensity of MCH class I expression on CD4^+ T cells (blue triangles) or CD8^+ T cells (black squares) measured with flow cytometry.

[2] = Open-label phase IIa clinical study: safety and tolerability; type: in vivo, human
Excerpt: The study outline is depicted in FIG. 3.

CD4+ T-lymphocytes = settings: BB rats exhibiting an AIDS-like lymphocyte profile; cited from earlier work

## pyroGlu-His-Trp-Ser-His-Gly-Trp-Tyr-Pro-Gly-NH2 ([pGlu]HWSHGWYPG-NH2; SMILES NC(=O)CNC(=O)[C@@H]1CCCN1C(=O)[C@H](Cc1ccc(O)cc1)NC(=O)[C@H](Cc1c[nH]c2ccccc12)NC(=O)CNC(=O)[C@H](Cc1c[nH]cn1)NC(=O)[C@H](CO)NC(=O)[C@H](Cc1c[nH]c2ccccc12)NC(=O)[C@H](Cc1c[nH]cn1)NC(=O)[C@@H]1CCC(=O)N1) [GnRH II, second, non-hypothalamic form of GnRH]
[1]
  MHC class I expression on T cells: stimulates MHC class I expression

## CCNC(=O)[C@@H]1CCCN1C(=O)[C@H](CCCNC(=N)N)NC(=O)[C@H](CC(C)C)NC(=O)[C@@H](COC(C)(C)C)NC(=O)[C@H](Cc1ccc(O)cc1)NC(=O)[C@H](CO)NC(=O)[C@H](Cc1c[nH]c2ccccc12)NC(=O)[C@H](Cc1cnc[nH]1)NC(=O)[C@@H]1CCC(=O)N1 [buserelin acetate]
[2]; Safety (n = 26)
  Any AE affecting impotence, % of patients: (23.1%)
  Any AE affecting libido, % of patients: (30.8%)
  Any AE leading to discontinuation, % of patients: (3.8%)
  Any AE, % of patients: (100.0%)
  Any SAE, % of patients: (0.0%)
  Any treatment-related AE, % of patients: (65.4%)
  Any treatment-related SAE, % of patients: (0.0%)
  Death, % of patients: 0.0%
[2]; in words
  grading of adverse events: All adverse events except one was graded as mild
  overall safety and tolerability of the treatment: safe and well-tolerated
  serious adverse events (SAEs) during the study: no serious adverse events

## pyroGlu-His-Trp-Ser-Tyr-Gly-Leu-Arg-Pro-Gly-NH2 (EHWSYGLRPG; N-terminal pyroglutamate, C-terminal amide; printed: Glu-His-Trp-Ser-Tyr-Gly-Leu-Arg-Pro-Gly-) [GnRH I, decapeptide hormone]
CD4+ T-lymphocytes
  CD4+ T-lymphocyte numbers: increased
